Test results published in PubChem BioAssay (NCI).
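96-well plates; 48 h exposure; 5 concentrations. Endpoints by linear interpolation between flanking doses. Not reached: highest tested concentration assigned. TGI: concentration producing complete growth inhibition.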

How the values were obtained:
Assay in all cases: DTP human tumour cell line panel, 48 h
[1] = tested on: ACHN renal
[2] = tested on: SK-MEL-2 melanoma
[3] = tested on: HS 578T breast
[4] = tested on: K-562 leukemia
[5] = tested on: SF-268 CNS
[6] = tested on: NCI-H23 lung
[7] = tested on: U251 CNS
[8] = tested on: NCI-H460 lung
[9] = tested on: RPMI-8226 leukemia
[10] = tested on: SNB-19 CNS
[11] = tested on: SF-295 CNS
[12] = tested on: SK-MEL-5 melanoma
[13] = tested on: LOX IMVI melanoma
[14] = tested on: HT29 colon
[15] = tested on: UACC-257 melanoma
[16] = tested on: NCI-H522 lung
[17] = tested on: M14 melanoma
[18] = tested on: OVCAR-3 ovarian
[19] = tested on: OVCAR-5 ovarian
[20] = tested on: UACC-62 melanoma
[21] = tested on: BT-549 breast
[22] = tested on: DU-145 prostate
[23] = tested on: A498 renal
[24] = tested on: TK-10 renal
[25] = tested on: HCC-2998 colon
[26] = tested on: SW-620 colon
[27] = tested on: MDA-N
[28] = tested on: SNB-75 CNS
[29] = tested on: A549 NSCLC
[30] = tested on: T-47D breast
[31] = tested on: UO-31 renal
[32] = tested on: KM12 colon
[33] = tested on: CAKI-1 renal
[34] = tested on: MCF7 breast
[35] = tested on: CCRF-CEM leukemia
[36] = tested on: EKVX NSCLC
[37] = tested on: HCT-15 colon
[38] = tested on: MALME-3M melanoma
[39] = tested on: SR leukemia
[40] = tested on: RXF 393 renal
[41] = tested on: OVCAR-4 ovarian
[42] = tested on: SK-MEL-28 melanoma
[43] = tested on: NCI/ADR-RES ovarian
[44] = tested on: HOP-62 NSCLC
[45] = tested on: SK-OV-3 ovarian
[46] = tested on: HCT-116 colon
[47] = tested on: MDA-MB-231 breast
[48] = tested on: 786-0 renal
[49] = tested on: OVCAR-8 ovarian
[50] = tested on: HL-60(TB) leukemia
[51] = tested on: IGROV1 ovarian
[52] = tested on: MDA-MB-435
[53] = tested on: SN12C renal
[54] = tested on: HOP-92 NSCLC
[55] = tested on: SF-539 CNS
[56] = tested on: MOLT-4 leukemia
[57] = tested on: COLO 205 colon
[58] = tested on: PC-3 prostate

Measured: TGI

O=P(O)(O)OC1OC(CO)C(O)C(O)C1O (configuration not stated)
not listed: [55] | [56] | [57] | [58]
> 100 µM: all other assays above

O=C(/C=C(\N=P(c1ccccc1)(c1ccccc1)c1ccccc1)C(F)(F)C(F)(F)C(F)(F)C(F)(F)C(F)(F)C(F)(F)C(F)(F)F)c1ccccc1
not listed: [16] | [23] | [36] | [47] | [49]
> 100 µM: all other assays above
